# Like-named read-outs stand apart in the source and are kept apart here.
# Experiments:
# [1] = test system: TNFα; test: Cot Monocyte TNFα Cell Based Assay
# [2] = molecular target: Human Cot (Homo sapiens (Human), UniProt P41279); test: High Throughput Cot Biochemical Assay; conditions: Cot HTRF (TR-FRET) biochemical assay
# [3] = Homo sapiens, Monocyte, read-out: EC50 TNF, LPS-stimulated human monocytes, TNFα
# [4] = read-out: EC50 TNF, LPS-stimulated human monocytes, TNFα
# Human Cot, sequence (P41279 30-397): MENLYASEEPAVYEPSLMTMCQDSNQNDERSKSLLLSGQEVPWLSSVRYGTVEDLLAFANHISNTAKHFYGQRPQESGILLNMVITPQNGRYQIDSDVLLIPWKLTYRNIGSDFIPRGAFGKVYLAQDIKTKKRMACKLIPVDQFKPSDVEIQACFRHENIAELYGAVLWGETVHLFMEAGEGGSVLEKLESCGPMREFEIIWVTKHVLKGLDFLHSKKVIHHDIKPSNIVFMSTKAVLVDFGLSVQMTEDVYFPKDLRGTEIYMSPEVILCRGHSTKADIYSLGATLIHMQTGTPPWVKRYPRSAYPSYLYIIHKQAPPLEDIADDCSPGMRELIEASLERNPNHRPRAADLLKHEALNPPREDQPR
SMILES,"EC50 [1, 3] [nM]",IC50 ([2]; IC50 HTRF) [nM],"EC50 [1, 4] [nM]",IC50 ([2]; read-out: IC50 HTRF) [nM]
"CC(C)(C)CNc1c(C#N)cnc2c(Cl)cc(N[C@H](c3cn(C4(CF)CC4)nn3)c3cccc4ccncc34)cc12 [Example 594, (S)-8-chloro-6-(((1-(1-(fluoromethyl)cyclopropyl)-1H-1,2,3-triazol-4-yl)(isoquinolin-8-yl)methyl)amino)-4-(neopentylamino)quinoline-3-carbonitrile]",33,2,–,–
"CCc1nc(F)ccc1[C@H](Nc1cc(C#N)c2ncc(C#N)c(NCC(C)(C)C)c2c1)c1cn(C2(C(F)F)CC2)nn1 [Example 597, (S)-6-(((1-(1-(difluoromethyl)cyclopropyl)-1H-1,2,3-triazol-4-yl)(2-ethyl-6-fluoropyridin-3-yl)methyl)amino)-4-(neopentylamino)quinoline-3,8-dicarbonitrile]",150,3,–,–
"Cc1nc(F)ccc1[C@H](Nc1cc(C#N)c2ncc(C#N)c(NCC(C)(C)C)c2c1)c1cn(Cc2c(F)cccc2F)nn1 [Example 601, (S)-6-(((1-(2,6-difluorobenzyl)-1H-1,2,3-triazol-4-yl)(6-fluoro-2-methylpyridin-3-yl)methyl)amino)-4-(neopentylamino)quinoline-3,8-dicarbonitrile]",32,4,–,–
"CCc1ncccc1[C@H](Nc1cc(C#N)c2ncc(C#N)c(NCC(C)(C)C)c2c1)c1cn(C2(C(F)(F)F)CC2)nn1 [Example 602, (S)-6-(((2-ethylpyridin-3-yl)(1-(1-(trifluoro-methyl)cyclopropyl)-1H-1,2,3-triazol-4-yl)methyl)amino)-4-(neopentylamino)-quinoline-3,8-dicarbonitrile]",69,3,–,–
"Cn1ncc2cccc([C@H](Nc3cc(Cl)c4ncc(C#N)c(NCC(C)(C)C)c4c3)c3cn(C4(C(F)F)CC4)nn3)c21 [Example 603, (S)-8-chloro-6-(((1-(1-(difluoromethyl)cyclo-propyl)-1H-1,2,3-triazol-4-yl)(1-methyl-1H-indazol-7-yl)methyl)amino)-4-(neopentyl-amino)quinoline-3-carbonitrile]",107,7,–,–
Cn1ncc2cccc([C@H](Nc3cc(C#N)c4ncc(C#N)c(NCC(C)(C)C)c4c3)c3cn(C4(C(F)F)CC4)nn3)c21 [Example 605],–,–,30,3
"CCc1ncccc1[C@H](Nc1cc(C#N)c2ncc(C#N)c(NCC(C)(C)C)c2c1)c1cn(C2(C(F)F)CC2)nn1 [Example 606, (S)-6-(((1-{1-(difluoromethyl)-cyclopropyl)-1H-1,2,3-triazol-4-yl)(2-ethylpyridin-3-yl)methyl)amino)-4-(neopentylamino)quinoline-3,8-dicarbonitrile]",27,2,–,–
"Cn1ncc2c([C@H](Nc3cc(C#N)c4ncc(C#N)c(NCC(C)(C)C)c4c3)c3cn(C4CC4)nn3)cccc21 [Example 609, (S)-6-(((1-cyclopropyl-1H-1,2,3-triazol-4-yl)(1-methyl-1H-indazol-4-yl)methyl)amino)-4-(neopentylamino)quinoline-3,8-dicarbonitrile]",46,2,–,–
"Cc1nc(F)ccc1[C@H](Nc1cc(C#N)c2ncc(C#N)c(NCC(C)(C)C)c2c1)c1cn(C2(CO)CC2)nn1 [Example 610, (S)-6-(((6-fluoro-2-methylpyridin-3-yl)(1-(1-(hydroxymethyl)cyclopropyl)-1H-1,2,3-triazol-4-yl)methyl)amino)-4-(neopentylamino)quinoline-3,8-dicarbonitrile]",199,2,–,–

# The next lines start with the values.
"EC50 [1, 3] [nM]",IC50 ([2]; IC50 HTRF) [nM],"EC50 [1, 4] [nM]",IC50 ([2]; read-out: IC50 HTRF) [nM],SMILES
1000,209,–,–,"COc1cc(N[C@H](c2cn(C3(C(F)(F)F)CC3)nn2)c2ccc(F)nc2C)cc2c(NCC(C)(C)C)c(C#N)cnc12 [Example 595, (S)-6-(((6-fluoro-2-methylpyridin-3-yl)(1-(1-(trifluoromethyl)cyclopropyl)-1H-1,2,3-triazol-4-yl)methyl)amino)-8-methoxy-4-(neopentylamino)quinoline-3-carbonitrile]"
826,79,–,–,"COc1cc(N[C@H](c2cn(C3(C#N)CC3)nn2)c2ccc(F)nc2C)cc2c(NCC(C)(C)C)c(C#N)cnc12 [Example 596, (S)-6-(((1-(1-cyanocyclopropyl)-1H-1,2,3-triazol-4-yl)(6-fluoro-2-methylpyridin-3-yl)methyl)amino)-8-methoxy-4-(neopentylamino)quinoline-3-carbonitrile]"
198,5,–,–,"CCc1nc(F)ccc1[C@H](Nc1cc(C#N)c2ncc(C#N)c(NCC(C)(C)C)c2c1)c1cn(C2(C(F)(F)F)CC2)nn1 [Example 598, (S)-6-(((2-ethyl-6-fluoropyridin-3-yl)(1-(1-(trifluoromethyl)cyclopropyl)-1H-1,2,3-triazol-4-yl)methyl)amino)-4-(neopentylamino)-quinoline-3,8-dicarbonitrile]"
113,5,–,–,"CCc1ncccc1[C@H](Nc1cc(Cl)c2ncc(C#N)c(NCC(C)(C)C)c2c1)c1cn(C2(C(F)(F)F)CC2)nn1 [Example 600, (S)-8-chloro-6-(((2-ethylpyridin-3-yl)(1-(1-(trifluoromethyl)cyclopropyl)-1H-1,2,3-triazol-4-yl)methyl)amino)-4-(neopentylamino)quinoline-3-carbonitrile]"
–,–,225,21,"Cc1nc(F)ccc1[C@@H](Nc1cc(Cl)c2ncc(C#N)c(NC3[C@H]4CCC[C@H]34)c2c1)c1cn(C2(C(F)(F)F)CC2)nn1 (stereo partly drawn) [Example 607, 4-(((lR,5S)-bicyclo[3.1.0]hexan-6-yl)amino)-8-chloro-6-(((S)-(6-fluoro-2-methylpyridin-3-yl)(1-(1-(trifluoromethyl)cyclopropyl)-1H-1,2,3-triazol-4-yl)methyl)amino)quinoline-3-carbonitrile]"
–,–,314,42,"Cc1nc(F)ccc1[C@H](Nc1cc(Cl)c2ncc(C#N)c(N[C@H]3[C@@H]4COC[C@@H]43)c2c1)c1cn(C2(C(F)(F)F)CC2)nn1 [Example 608, 4-(((lR,5S,6r)-3-oxabicyclo[3.1.0]hexan-6-yl)amino)-8-chloro-6-(((S)-(6-fluoro-2-methylpyridin-3-yl)(1-(1-(trifluoromethyl)cyclo-propyl)-1H-1,2,3-triazol-4-yl)methyl)amino)-quinoline-3-carbonitrile]"
229,20,–,–,"Cc1nc(F)ccc1[C@H](Nc1cc(Cl)c2ncc(C#N)c(N[C@@H](c3ccccc3)C3CC3)c2c1)c1cn(C2(C(F)(F)F)CC2)nn1 [Example 611, 8-chloro-4-(((R)-cyclopropyl(phenyl)methyl)-amino)-6-(((S)-(6-fluoro-2-methylpyridin-3-yl)(1-(1-(trifluoromethyl)cyclopropyl)-1H-1,2,3-triazol-4-yl)methyl)amino)quinoline-3-carbonitrile]"
171,11,–,–,"Cc1nc(F)ccc1[C@H](Nc1cc(Cl)c2ncc(C#N)c(NCC(C)(C)c3ccccc3)c2c1)c1cn(C2(C(F)(F)F)CC2)nn1 [Example 612, (S)-8-chloro-6-(((6-fluoro-2-methylpyridin-3-yl)(1-(1-(trifluoromethyl)cyclopropyl)-1H-1,2,3-triazol-4-yl)methyl)amino)-4-((2-methyl-2-phenylpropyl)amino)quinoline-3-carbonitrile]"

# Source: US11066414B2, “Cot modulators and methods of use thereof” (Gilead Sciences, Inc., priority 2015, dated 2021)
